Results as given in BindingDB's records for doi:10.1021/jf050110v (China Pharmaceutical University, 2020).

These compounds were tested against High affinity nerve growth factor receptor (Homo sapiens, UniProt P04629) (assay: Inhibition of wild type […] (unknown origin) incubated for 30 mins by caliper mobility shift assay).
High affinity nerve growth factor receptor, sequence (P04629 whole entry): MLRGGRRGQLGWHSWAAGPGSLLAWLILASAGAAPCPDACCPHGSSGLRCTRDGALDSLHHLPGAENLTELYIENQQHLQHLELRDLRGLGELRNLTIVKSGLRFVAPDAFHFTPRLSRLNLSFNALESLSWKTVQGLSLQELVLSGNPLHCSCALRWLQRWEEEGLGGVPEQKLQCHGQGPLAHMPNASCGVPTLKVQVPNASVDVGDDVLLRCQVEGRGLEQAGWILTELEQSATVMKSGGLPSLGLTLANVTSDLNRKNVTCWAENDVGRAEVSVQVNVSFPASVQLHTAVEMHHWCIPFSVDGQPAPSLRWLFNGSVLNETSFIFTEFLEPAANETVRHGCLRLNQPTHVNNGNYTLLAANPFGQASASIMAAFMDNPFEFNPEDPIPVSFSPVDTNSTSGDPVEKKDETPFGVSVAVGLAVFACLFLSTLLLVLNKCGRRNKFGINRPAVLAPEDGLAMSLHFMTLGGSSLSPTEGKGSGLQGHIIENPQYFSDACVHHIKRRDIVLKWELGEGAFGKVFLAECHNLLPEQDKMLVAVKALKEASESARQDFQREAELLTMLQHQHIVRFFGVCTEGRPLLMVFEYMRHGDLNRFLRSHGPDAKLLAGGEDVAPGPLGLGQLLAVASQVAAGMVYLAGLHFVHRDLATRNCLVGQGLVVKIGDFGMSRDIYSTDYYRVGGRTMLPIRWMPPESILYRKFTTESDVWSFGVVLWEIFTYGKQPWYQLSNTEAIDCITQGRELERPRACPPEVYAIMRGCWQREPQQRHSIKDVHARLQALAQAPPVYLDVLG

SMILES | IC50
O=C(NC1CCOCC1)c1cnn2ccc(NCc3cccc(F)c3)nc12 | 3.6 nM
CO[C@H]1CC[C@H](NC(=O)c2cnn3ccc(NCc4cccc(F)c4)nc23)CC1 | 1.5 nM
CC(Nc1ccn2ncc(C(=O)NC3CCOCC3)c2n1)c1cccc(F)c1 (stereo unspecified) | 2.1 nM
O=C(NC1CCOCC1)c1cnc2ccc(NCc3cccc(F)c3)nn12 | 8.4 nM
CO[C@H]1CC[C@H](NC(=O)c2cnc3ccc(NCc4cccc(F)c4)nn23)CC1 | 3 nM

The remaining compounds from weak to strong by IC50, led by results:

IC50 | SMILES
3.2 nM | CN(Cc1cccc(F)c1)c1ccn2ncc(C(=O)NC3CCOCC3)c2n1
3 nM | CC(Nc1ccn2ncc(C(=O)N[C@H]3CC[C@H](O)CC3)c2n1)c1cccc(F)c1 (stereo partly specified)
2.8 nM | O=C(N[C@H]1CC[C@H](O)CC1)c1cnc2ccc(NCc3cccc(F)c3)nn12
1.6 nM | O=C(N[C@H]1CC[C@H](O)CC1)c1cnn2ccc(NCc3cccc(F)c3)nc12
1.3 nM | CN(Cc1cccc(F)c1)c1ccn2ncc(C(=O)N[C@H]3CC[C@H](O)CC3)c2n1
1.1 nM | CO[C@H]1CC[C@H](NC(=O)c2cnn3ccc(N(C)Cc4cccc(F)c4)nc23)CC1
